Laboratory results as given in patent US11207252B2, “Synergistic preservative blends” (priority 2013, dated 2021).

Columns and labels:
[1] = system: mixed inoculum of Candida albicans ATCC 10231 and Aspergillus niger ATCC 16404; experiment: Challenge test, fungi, in unpreserved shampoo pH 5.5 (Table 2); conditions: shampoo of Table 2, pH 5.5, Example 1 at 1% or its components at 0.06% sorbic acid, 0.2% benzyl alcohol, 0.37% 1,2-propanediol, 0.37% 1,4-butanediol
[2] = system: mixed inoculum of Staphylococcus aureus ATCC 6538, Pseudomonas aeruginosa ATCC 9027 and Escherichia coli ATCC 8739; experiment: Challenge test, bacteria, in unpreserved shampoo (Shampoo ULD); conditions: room temperature, Example 1 at 1% or its components at 0.06% sorbic acid, 0.2% benzyl alcohol, 0.37% 1,2-propanediol, 0.37% 1,4-butanediol
Method: A mixed inoculum containing approximately equal amounts of Staphylococcus aureus ATCC 6538, Pseudomonas aeruginosa ATCC 9027 and Escherichia coli ATCC 8739 was prepared according to the following procedure:
One colony of each bacteria strain was transferred from a stock culture to a tryptic soy agar plate which was incubated for 18-24 h at 37±2° C. Subsequently, some colonies of each of the thus-obtained cultures were transferred to a tryptic soy broth tube which was again incubated for 18-24 h at 37±2° C. to obtain a bacteria subculture, 200 μL of which were added to 2 mL of NaCl-peptone solution in a sterile plastic tube to obtain an inoculum containing approximately 10^9 cfu/mL of the respective bacterium. Finally, the mixed inoculum was prepared by mixing equal volumes of each inoculum.
For comparison purposes, additional 20 g samples were tested using equivalent amounts of each of the components of the preservative composition either alone or in two- or three-component combinations. Each sample was then inoculated with 200 μL of the mixed inoculum obtained in step A) and shaken vigorously to obtain a homogeneous contamination. The samples were then stored at room temperature and the bacteria count was determined in intervals of 7 days by taking 200 μL samples, mixing each of them with 1.8 mL of inactivation medium, and homogeneously plating 100 μL of the resulting mixtures on the surface of agar plates which were incubated for 2-3 days at 37±2° C. After the incubation period the colonies formed on the agar plates were counted and the results translated into cfu/mL. If necessary, serial dilutions in NaCl-peptone were prepared to cope with high bacteria counts.

In the case of C/C=C/C=C/C(=O)O [Sorbic Acid], the “Mixed Fungi Germ Count, 7 days” value ([1]; 7 days) is reported as >10^5 cfu/g, the “Mixed Fungi Germ Count, 14 days” value ([1]; 14 days) is reported as >10^4 cfu/g and the “Mixed Fungi Germ Count, 21 days” value ([1]; 21 days) is reported as >10^5 cfu/g. For the same compound, the “Mixed Fungi Germ Count, 28 days” value ([1]; 28 days) was >10^3 cfu/g, the “Mixed Bacteria Germ Count, 7 days” value ([2]; 7 days) was >10^4 cfu/g and the “Mixed Bacteria Germ Count, 14 days” value ([2]; 14 days) was >10^3 cfu/g. For the same compound, the “Mixed Bacteria Germ Count, 21 days” value ([2]; 21 days) was 6.7 × 10^2 cfu/g and the “Mixed Bacteria Germ Count, 28 days” value ([2]; 28 days) was 2.0 × 10^1 cfu/g.
